Test results: PMC3617668, “In Vitro Antileishmanial, Trypanocidal, and Mammalian Cell Activities of Diverse N,N′ -Dihetaryl Substituted Diamines and Related Compounds” (Scientia Pharmaceutica, 2012)
Where “and” joins values, the source holds several entries; their conditions need not be identical. Equal entries are not always repeated.

How the values were obtained:
[1] = test system: L.(V.) panamensis intracellular amastigotes; assay: Intracellular amastigotes of L. (V.) panamensis in THP-1 macrophages; type: cell-based, Leishmania (Viannia) panamensis; conditions: for IC90 / IC50: THP-1 macrophages, 72 h; for IC50: 78.3% cells infected before treatment; for L.(V.) panamensis intracellular amastigotes SI: selectivity index CC50/IC50
Protocol: (§1) For the amastigotes assays, adherent Vero cells or THP-1 macrophages (after transformation with 10 ng/mL PMA) were infected with tissue-derived trypomastigotes or stationary phase promastigotes, respectively, at a ratio of 10:1 and maintained in a 5% CO2-95% air mixture at 37 °C. After 24 h, infected cultures with >50% of infected cells were incubated with the compounds (from 3–300 μM) in a three-fold dilution series for 72 h. Drug activity was determined from the % of infected cells in treated and untreated cultures in fixed methanol and Giemsa stained preparations. Parasites’ assays were performed twice and each tested concentration was tested in triplicate.
(§2) Negative controls were used without the drug (culture medium alone) in each experiment.
(§3) The data were calculated by linear regression using the software (Msxlfit; GO Business Solution, Guildford, UK). The selectivity index (SI) was calculated dividing CC50/IC50. Each experiment was repeated twice and the values represent the results of one representative experiment. […] The analysis to determine the statistical differences in biological activity was performed using the analysis of variance (ANOVA) and the Bonferroni post-test. We also performed Student’s t test for comparison between the two variables, using GraphPad Prism software version 5.03. P values <0.05 were considered to be statistically significant.

T. cruzi epimastigotes = assay: In vitro activity on T. cruzi epimastigotes, counting viable parasites; type: cell-based, Trypanosoma cruzi; conditions: for IC50: Trypanosoma cruzi, 72 h, 28 °C, read-out: T. cruzi epimastigotes IC50 ± SD; for activity on T. cruzi epimastigotes, in words: free-living form; for T. cruzi epimastigotes SI: selectivity index CC50/IC50
Protocol: (§4) Epimastigotes of T. cruzi and promastigotes forms of L. […] The inhibition of parasite growth was microscopically determined by counting viable (live) parasites in a haemocytometer using yellow eosin as vital dye; live parasites (uncolored) and dead (orange) were counted. All of the experiments were performed with parasites in their logarithmic phase of growth. […] Negative controls were used without the drug (culture medium alone) in each experiment. […] The data were calculated by linear regression using the software ([…]; GO Business Solution, Guildford, UK). The selectivity index (SI) was calculated dividing CC50/IC50. Each experiment was repeated twice and the values represent the results of one representative experiment. […] The analysis to determine the statistical differences in biological activity was performed using the analysis of variance (ANOVA) and the Bonferroni post-test. We also performed Student's t test for comparison between the two variables, using GraphPad Prism software version 5.03.

[2] = test system: T. cruzi intracellular amastigotes; assay: Intracellular amastigotes of T. cruzi in Vero cells; type: cell-based, Trypanosoma cruzi; conditions: for IC90 / IC50: Trypanosoma cruzi, Vero cells, 72 h; for IC50: 98.1% cells infected before treatment; for T. cruzi intracellular amastigotes SI: selectivity index CC50/IC50
Protocol: as §1, §2, §3

[3] = test system: L. (L.) amazonensis intracellular amastigotes; assay: Intracellular amastigotes of L. (L.) amazonensis in THP-1 macrophages; type: cell-based, Leishmania (Leishmania) amazonensis; conditions: for IC90 / IC50: Leishmania amazonensis, THP-1 macrophages, 72 h; for IC50: 58.6% cells infected before treatment; for L. (L.) amazonensis intracellular amastigotes SI: selectivity index CC50/IC50
Protocol: as §1, §2, §3

[4] = test system: L. (L.) infantum promastigotes; assay: In vitro activity on L. (L.) infantum promastigotes, counting viable parasites; type: cell-based, Leishmania (Leishmania) infantum; conditions: for IC50: Leishmania infantum, 72 h, 28 °C, read-out: L. (L) infantum promastigotes IC50 ± SD; for activity on L. (L.) infantum promastigotes, in words: free-living form; for L. (L) infantum promastigotes SI: selectivity index CC50/IC50
Protocol: as §4

[5] = Mammalian cell toxicity, MTT, THP-1 cells; type: cell-based; conditions: human, THP-1 cells transformed into adherent macrophages with PMA, 72 h, MTT; for CC50 at 72 h: read-out: Mammalian cells THP-1 CC50 ± SD
Protocol: (§5) Vero cells and THP-1 cells transformed into adherent macrophages with PMA in 96 microwell plates where they were treated with compounds (0-350 μM) during 72 h at 37 °C, 5% CO2-95% air mixture. The viability of the cells was evaluated by using the tetrazolium-dye (MTT) colorimetric method. After incubation of the cells with the MTT (5mg/mL) reagent for 4 hours, DMSO was added. The samples were read using an ELISA plate reader at a wavelength of 580 nm. The amount of color produced is directly proportional to the number of viable cells. The percentage of cytotoxicity was calculated by the equation: cytotoxicity (%) = (OD control group-OD treatment group)/OD control group × 100 [31]. […] The data were calculated by linear regression using the software ([…]; GO Business Solution, Guildford, UK). The selectivity index (SI) was calculated dividing CC50/IC50. Each experiment was repeated twice and the values represent the results of one representative experiment. […] The analysis to determine the statistical differences in biological activity was performed using the analysis of variance (ANOVA) and the Bonferroni post-test. We also performed Student's t test for comparison between the two variables, using GraphPad Prism software version 5.03.

[6] = test system: L. (L.) infantum intracellular amastigotes; assay: Intracellular amastigotes of L. (L.) infantum infecting THP-1 macrophages; type: cell-based, Leishmania (Leishmania) infantum; conditions: for IC90 / IC50: Leishmania infantum, THP-1 macrophages, 72 h; for IC50: 48.58% cells infected before treatment; for L. (L.) infantum intracellular amastigotes SI: selectivity index CC50/IC50
Protocol: as §1, §2, §3

[7] = Mammalian cell toxicity, MTT, Vero cells; type: cell-based; conditions: African green monkey, Vero cells, 72 h, MTT; for CC50 at 72 h: read-out: Mammalian cells Vero CC50 ± SD
Protocol: as §5

Vero cells = assay: Mammalian cell toxicity, MTT, Vero cells; type: cell-based
Protocol: as §5

THP-1 cells = assay: Mammalian cell toxicity, MTT, THP-1 cells; type: cell-based
Protocol: as §5

Row | Compound | IC50 (T. cruzi epimastigotes) | IC50 [4] | L. (L) infantum promastigotes SI [4] | CC50 at 72 h [5] | CC50 at 72 h [7] | T. cruzi epimastigotes SI (T. cruzi epimastigotes) | other results
1 | c1ccc(CNCCNCc2ccccc2)cc1 [5a, N^1,N^2-dibenzylethane-1,2-diamine] | 2.54 ± 0.08 µM | 12.2 ± 2.45 µM | 19.58 | 239 ± 17.9 µM | 75.3 ± 2.57 µM | – | activity on intracellular amastigotes of L. panamensis, in words [1]: partially active (partially active with IC50 >25 μM and IC90 <100 μM); IC90 [1]: 88.1 ± 1.85 µM; IC50 [1]: 58.2 ± 3.23 µM; L.(V.) panamensis intracellular amastigotes SI [1]: 5; activity on T. cruzi epimastigotes, in words (T. cruzi epimastigotes): active; IC90 [2]: > 123 µM; IC50 [2]: 131.2 ± 0.92 µM; T. cruzi intracellular amastigotes SI [2]: 0.48; IC90 [3]: 131 ± 9.14 µM; IC50 [3]: 49.3 ± 4.7 µM; L. (L.) amazonensis intracellular amastigotes SI [3]: 6; activity on L. (L.) infantum promastigotes, in words [4]: active; IC90 [6]: 59.5 ± 2.78 µM; IC50 [6]: 25.4 ± 0.33 µM; L. (L.) infantum intracellular amastigotes SI [6]: 9.39 and 9
2 | c1ccc(CNCCCNCc2ccccc2)cc1 [5b] | 5.35 ± 0.27 µM | 1.96 ± 0.07 µM | 86.29 | 169 ± 29.8 µM | 343 ± 29.4 µM | 64.2 | –
3 | COc1ccc(CNCCNCc2ccc(OC)c(O)c2)cc1O [5d] | 0.88 ± 0.06 µM | 40.2 ± 5.21 µM | >7.48 | > 300 µM | > 300 µM | – | –
4 | COc1ccc(CNCCCCNCc2ccc(OC)c(O)c2)cc1O [5e] | 1.22 ± 0.08 µM | > 250 µM | – | 248 µM | > 250 µM | – | –
5 | c1cc(CNCCNCc2ccncc2)ccn1 [5h] | > 250 µM | 181 ± 1.89 µM | >2.28 | > 413 µM | 356 ± 37.1 µM | >0.86 | –
6 | c1ccc(CNCCCCNCc2ccccn2)nc1 [5i] | > 250 µM | 28.8 ± 5.14 µM | >12.82 | > 300 µM | 132 ± 12.3 µM | >0.35 | –
7 | c1cncc(CNCCCCNCc2cccnc2)c1 [5j] | > 250 µM | 44.2 ± 10.5 µM | >8.36 | > 300 µM | > 300 µM | >1 | –
8 | O=C1CSC(c2ccccc2)N1CCN1C(=O)CSC1c1ccccc1 (stereo not drawn) [6a] | 237 ± 12.1 µM | 136 ± 6.96 µM | >1.91 | > 250 µM | 171 ± 3.77 µM | 0.72 | –
9 | O=C1CSC(c2ccccc2)N1CCCCN1C(=O)CSC1c1ccccc1 (stereo not drawn) [6c] | > 250 µM | > 250 µM | >1.0 | > 250 µM | > 250 µM | >1.01 | –
10 | O=C1CSC(c2ccccn2)N1CCN1C(=O)CSC1c1ccccn1 (stereo not drawn) [6f] | 161 ± 5.58 µM | 176 ± 16 µM | >1.46 | > 250 µM | > 250 µM | >1.60 | –
11 | O=C1CSC(c2cccnc2)N1CCN1C(=O)CSC1c1cccnc1 (stereo not drawn) [6g] | > 250 µM | > 250 µM | >1.0 | > 250 µM | > 250 µM | >1.0 | –
12 | O=C1CSC(c2ccncc2)N1CCN1C(=O)CSC1c1ccncc1 (stereo not drawn) [6h] | > 250 µM | > 250 µM | >1.0 | > 250 µM | > 250 µM | >1.0 | –
13 | O=C1CSC(c2ccccn2)N1CCCCN1C(=O)CSC1c1ccccn1 (stereo not drawn) [6i] | > 250 µM | > 250 µM | >1.0 | > 250 µM | > 250 µM | >1.0 | –
14 | O=C1CSC(c2cccnc2)N1CCCCN1C(=O)CSC1c1cccnc1 (stereo not drawn) [6j] | 235 ± 3.06 µM | > 250 µM | >1.0 | > 250 µM | 75.4 ± 1.8 µM | 0.32 | –
15 | O=C1CSC(c2ccncc2)N1CCCCN1C(=O)CSC1c1ccncc1 (stereo not drawn) [6k] | > 250 µM | > 250 µM | >1.0 | > 250 µM | > 250 µM | >1.0 | –
16 | O=C(CCl)NCCNC(=O)CCl [7a] | 65.9 ± 5.54 µM | 176 ± 19 µM | >2.66 | > 300 µM | 25.7 ± 1.22 µM | 0.38 | CC90 at 72 h [7]: 49.5 ± 1.87 µM; toxicity on Vero cells, in words (Vero cells): toxic
17 | O=C(CCl)NCCCNC(=O)CCl [7b] | 1.01 ± 0.13 µM | 76.4 ± 1.05 µM | 2.07 | 158 ± 4.53 µM | 32.7 ± 6.56 µM | 32.35 | –
18 | O=C(CCl)NCCCCNC(=O)CCl [7c] | 54.2 ± 1.16 µM | 132 ± 7.63 µM | 2.76 | 366 µM | 37.1 ± 0.45 µM | 0.68 | CC90 at 72 h [7]: 77.6 ± 3.15 µM; toxicity on Vero cells, in words (Vero cells): toxic
19 | C[C@@H]1[C@H](O)[C@@H](C)/C=C/C=C/C=C/C=C/C=C/C=C/C=C/[C@H](O[C@@H]2O[C@H](C)[C@@H](O)[C@H](N)[C@@H]2O)C[C@@H]2O[C@](O)(C[C@@H](O)C[C@@H](O)[C@H](O)CC[C@@H](O)C[C@@H](O)CC(=O)O[C@H]1C)C[C@H](O)[C@H]2C(=O)O [AmB, Amphotericin B, reference compound] | – | 0.014 ± 0.001 µM | 948.57 | 13.3 ± 1.72 µM | – | – | IC90 [1]: 0.2 ± 0.002 µM; IC50 [1]: 0.032 ± 0.002 µM; L.(V.) panamensis intracellular amastigotes SI [1]: 420; IC90 [3]: 0.2 ± 0.002 µM; IC50 [3]: 0.082 ± 0.002 µM; L. (L.) amazonensis intracellular amastigotes SI [3]: 616; IC90 [6]: 0.138 ± 0.023 µM; IC50 [6]: 0.045 ± 0.007 µM; L. (L.) infantum intracellular amastigotes SI [6]: 360
20 | CC1CS(=O)(=O)CCN1/N=C/c1ccc([N+](=O)[O-])o1 (stereo not drawn) [Nif, Nifurtimox, reference compound] | 2.71 ± 0.05 µM | – | – | – | 76.5 ± 3.2 µM | 28.23 | IC90 [2]: 10.2 ± 1.6 µM; IC50 [2]: 2.34 ± 0.83 µM; T. cruzi intracellular amastigotes SI [2]: 55
21 | O=C(CCl)N(CCCCN(Cc1ccccc1)C(=O)CCl)Cc1ccccc1 [compound 8] | 0.02 ± 0.004 µM | 3.91 ± 0.01 µM | 6.4 | 25.1 ± 0.35 µM | > 250 µM | – | activity on T. cruzi epimastigotes, in words (T. cruzi epimastigotes): active; activity on L. (L.) infantum promastigotes, in words [4]: active; toxicity on THP-1 cells, in words (THP-1 cells): partially toxic; CC90 at 72 h [5]: > 208 µM
